Data: ChEMBL document CHEMBL3217558 (Medchemcomm, 2012)

Tests used:
[1] = molecular target: Voltage-gated inwardly rectifying potassium channel KCNH2 (Homo sapiens, UniProt Q12809)
[2] = molecular target: Hepatocyte growth factor receptor (Homo sapiens, UniProt P08581)
Hepatocyte growth factor receptor, sequence (P08581 whole entry): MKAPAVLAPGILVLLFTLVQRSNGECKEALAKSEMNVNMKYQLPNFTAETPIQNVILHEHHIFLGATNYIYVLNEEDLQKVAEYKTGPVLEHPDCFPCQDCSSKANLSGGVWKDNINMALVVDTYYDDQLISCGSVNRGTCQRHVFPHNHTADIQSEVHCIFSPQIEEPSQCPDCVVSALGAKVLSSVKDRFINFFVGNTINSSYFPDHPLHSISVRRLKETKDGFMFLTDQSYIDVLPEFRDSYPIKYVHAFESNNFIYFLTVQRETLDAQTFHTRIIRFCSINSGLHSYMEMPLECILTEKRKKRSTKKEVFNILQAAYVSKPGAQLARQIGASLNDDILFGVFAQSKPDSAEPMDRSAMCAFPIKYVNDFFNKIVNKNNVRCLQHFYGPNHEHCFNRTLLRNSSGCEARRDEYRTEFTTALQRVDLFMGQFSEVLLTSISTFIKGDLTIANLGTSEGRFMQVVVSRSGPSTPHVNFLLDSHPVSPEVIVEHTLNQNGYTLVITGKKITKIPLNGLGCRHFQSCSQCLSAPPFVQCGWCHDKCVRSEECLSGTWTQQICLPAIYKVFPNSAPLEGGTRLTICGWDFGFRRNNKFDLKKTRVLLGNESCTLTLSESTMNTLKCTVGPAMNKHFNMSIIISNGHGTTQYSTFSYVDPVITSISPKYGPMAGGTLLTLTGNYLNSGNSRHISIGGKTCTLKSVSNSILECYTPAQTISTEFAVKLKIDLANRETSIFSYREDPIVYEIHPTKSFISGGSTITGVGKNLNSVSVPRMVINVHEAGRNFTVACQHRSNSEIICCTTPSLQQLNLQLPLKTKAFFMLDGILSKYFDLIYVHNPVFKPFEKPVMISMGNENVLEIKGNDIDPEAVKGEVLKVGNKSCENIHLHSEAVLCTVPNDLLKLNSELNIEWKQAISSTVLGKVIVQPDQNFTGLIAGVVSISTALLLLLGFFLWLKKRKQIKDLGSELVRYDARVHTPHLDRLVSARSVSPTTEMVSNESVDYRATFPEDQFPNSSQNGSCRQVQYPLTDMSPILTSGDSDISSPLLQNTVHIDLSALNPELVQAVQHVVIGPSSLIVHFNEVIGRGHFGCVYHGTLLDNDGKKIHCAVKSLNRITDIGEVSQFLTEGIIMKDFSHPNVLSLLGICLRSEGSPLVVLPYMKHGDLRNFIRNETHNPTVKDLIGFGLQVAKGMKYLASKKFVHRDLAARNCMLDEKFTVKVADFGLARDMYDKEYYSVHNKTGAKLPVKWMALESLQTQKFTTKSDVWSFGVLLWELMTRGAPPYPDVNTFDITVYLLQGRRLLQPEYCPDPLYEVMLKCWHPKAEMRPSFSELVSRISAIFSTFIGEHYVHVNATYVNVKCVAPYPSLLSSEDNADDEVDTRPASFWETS
Description: Inhibition of c-Met (unknown origin) using poly (Glu, Tyr) 4:1 as substrate after 60 mins by ELISA

Voltage-gated inwardly rectifying potassium channel KCNH2, sequence (Q12809 whole entry): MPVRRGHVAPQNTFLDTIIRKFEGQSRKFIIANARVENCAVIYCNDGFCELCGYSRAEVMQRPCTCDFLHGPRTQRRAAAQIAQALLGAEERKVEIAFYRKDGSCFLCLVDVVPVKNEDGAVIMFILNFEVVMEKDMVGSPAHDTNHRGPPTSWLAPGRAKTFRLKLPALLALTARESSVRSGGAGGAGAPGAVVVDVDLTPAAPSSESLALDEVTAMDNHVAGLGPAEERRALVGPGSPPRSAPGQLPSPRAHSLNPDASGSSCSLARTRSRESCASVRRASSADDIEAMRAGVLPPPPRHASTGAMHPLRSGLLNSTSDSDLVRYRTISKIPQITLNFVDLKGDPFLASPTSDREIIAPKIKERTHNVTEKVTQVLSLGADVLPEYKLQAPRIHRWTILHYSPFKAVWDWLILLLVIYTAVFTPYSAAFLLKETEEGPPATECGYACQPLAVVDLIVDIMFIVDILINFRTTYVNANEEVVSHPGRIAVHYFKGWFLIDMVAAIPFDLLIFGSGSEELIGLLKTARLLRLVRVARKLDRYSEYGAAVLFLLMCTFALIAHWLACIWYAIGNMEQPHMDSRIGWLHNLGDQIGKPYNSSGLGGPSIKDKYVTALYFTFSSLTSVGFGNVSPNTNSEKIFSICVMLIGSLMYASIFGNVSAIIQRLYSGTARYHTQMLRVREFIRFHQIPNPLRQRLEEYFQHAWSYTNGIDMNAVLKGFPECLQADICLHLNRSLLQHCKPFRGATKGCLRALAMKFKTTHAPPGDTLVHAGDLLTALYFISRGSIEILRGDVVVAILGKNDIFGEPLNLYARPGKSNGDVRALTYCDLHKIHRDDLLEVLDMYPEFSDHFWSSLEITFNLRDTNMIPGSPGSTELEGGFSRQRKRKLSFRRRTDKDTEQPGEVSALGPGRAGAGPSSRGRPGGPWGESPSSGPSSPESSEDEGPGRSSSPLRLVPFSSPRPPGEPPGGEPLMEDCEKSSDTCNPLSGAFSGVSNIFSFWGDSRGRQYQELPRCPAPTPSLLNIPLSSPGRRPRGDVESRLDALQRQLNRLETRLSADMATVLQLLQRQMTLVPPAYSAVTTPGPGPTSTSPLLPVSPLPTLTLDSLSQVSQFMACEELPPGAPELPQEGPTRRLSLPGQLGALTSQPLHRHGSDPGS

| SMILES | IC50 [1] | IC50 [2] |
| --- | --- | --- |
| CC(=O)c1cccc(CNc2cc(C(F)(F)F)cc3ncc(N4CCN(C)CC4)cc23)c1 | 93.6 µM | – |
| CCNC(=O)Nc1cccc(CNc2cc(C(F)(F)F)cc3ncc(N4CCN(C)CC4)cc23)c1 | 81.7 µM | – |
| [2H]C(Nc1cc(C(F)(F)F)cc2ncc(N3CCN(C(C)=O)CC3)cc12)c1cccc([N+](=O)[O-])c1 (stereo not drawn) | – | 1.6 nM |
